# Results published in ChEMBL document CHEMBL4814012, “Synthesis and structure-activity relationships of 5-phenyloxazole-2-carboxylic acid derivatives as novel inhibitors of tubulin polymerization” (Bioorg Med Chem Lett, 2021).
# Tests used:
# A549 [1] = test: Cytotoxicity against human A549 cells assessed as reduction in cell growth by CCK8 assay; format: functional, cell-based
# HeLa = test: Cytotoxicity against human HeLa cells assessed as reduction in cell growth by CCK8 assay; format: functional, cell-based
# HepG2 = test: Cytotoxicity against human HepG2 cells assessed as reduction in cell growth by CCK8 assay; format: functional, cell-based
# [2] = Selectivity ratio of IC50 for human BEAS-2B cells to IC50 for human A549 cells; format: toxicity; details: BEAS-2B cells versus A549 cells, read-out: Ratio IC50
# BEAS-2B = test: Cytotoxicity against human BEAS-2B cells assessed as reduction in cell growth by CCK8 assay; format: cell-based
# Tubulin (Homo sapiens) [3] = target: T1, Tubulin (Homo sapiens) (UniProt P68371+Q9H4B7+P0DPH7+P68366+Q13509+Q71U36+P04350+Q3ZCM7+P07437+P68363+Q9BQE3+Q6PEY2+Q13885+Q9BVA1+Q9BUF5); test: Inhibition of tubulin polymerization (unknown origin) at 40 uM measured every 30 secs for 90 mins relative to control; format: protein-complex assay
# Tubulin = test: (§1) Inhibition of tubulin polymerization (unknown origin) measured every 30 secs for 90 mins; format: protein-complex assay, Homo sapiens
# A549 [4] = test: Induction of cell cycle arrest in human A549 cells assessed as accumulation at G2/M phase at 1 uM after 24 hrs by flow cytometric analysis (reference value: 14.08%); format: functional
# Tubulin (Homo sapiens) [5] = target: T1, Tubulin (Homo sapiens); test: as §1; format: protein-complex assay
# A549 [6] = test: Induction of cell cycle arrest in human A549 cells assessed as accumulation at G1 phase at 1 uM after 24 hrs by flow cytometric analysis (reference value: 70.48%); format: functional
# A549 [7] = test: Induction of cell cycle arrest in human A549 cells assessed as accumulation at S phase at 1 uM after 24 hrs by flow cytometric analysis (reference value: 15.44%); format: functional
SMILES,IC50 (A549 [1]) [µM],IC50 (HeLa) [µM],IC50 (HepG2) [µM],also measured
O=C(Nc1ccc(O)cc1)c1ncc(-c2ccc(F)cc2)o1,> 30,> 30,> 30,
COc1ccc(NC(=O)c2ncc(-c3ccccc3)o2)cc1,> 30,> 30,> 30,
COc1cc(-c2cnc(C(=O)Nc3ccc(O)cc3)o2)cc(OC)c1OC,> 30,> 30,> 30,
COc1ccc(-c2cnc(C(=O)Nc3ccc(O)cc3)o2)cc1,1.93,1.44,2.76,selectivity ratio [2]: 2.37; IC50 (BEAS-2B): 4.58 µM; inhibition (Tubulin (Homo sapiens) [3]): 27%; IC50 (Tubulin): > 40 µM
COc1ccc(-c2cnc(C(=O)Nc3ccc(O)cc3)o2)cc1F,1.2,1.12,1.81,selectivity ratio [2]: 2.17; IC50 (BEAS-2B): 2.6 µM; inhibition (Tubulin (Homo sapiens) [3]): 46%; IC50 (Tubulin): > 40 µM
O=C(Nc1ccc(O)cc1)c1ncc(-c2ccccc2)o1,1.08,0.78,1.27,Activity (A549 [4]): 85.81%; selectivity ratio [2]: 3.11; IC50 (BEAS-2B): 3.36 µM; inhibition (Tubulin (Homo sapiens) [3]): 91%; IC50 (Tubulin): 16.7 µM; inhibition (Tubulin (Homo sapiens) [5]): Dose-Dependent Effect; Activity (A549 [6]): 1.14%; Activity (A549 [7]): 13.05%
O=C(c1ncc(-c2ccccc2)o1)N1CCN(c2ccccc2)CC1,> 30,> 30,> 30,
COc1ccc(C(=O)c2ncc(-c3ccc(OC)cc3)o2)cc1,> 30,> 30,> 30,
COc1ccc(NC(=O)c2ncc(-c3cc(OC)c(OC)c(OC)c3)o2)cc1,25.8,20.5,> 30,
Cc1ccc(NC(=O)c2ncc(-c3ccccc3)o2)cc1,> 30,> 30,> 30,
COc1cccc(-c2cnc(C(=O)c3ccccc3)o2)c1,> 30,> 30,> 30,
COc1ccc(NC(=O)c2ncc(-c3ccc(O)cc3)o2)cc1,11.3,9.67,17.3,
COc1cc2c(c(OC)c1OC)-c1ccc(OC)c(=O)cc1[C@@H](NC(C)=O)CC2 [COLCHICINE],0.053,,,IC50 (BEAS-2B): 0.016 µM
O=C(Nc1cccc(O)c1)c1ncc(-c2ccccc2)o1,> 30,> 30,> 30,
O=C(c1ncc(-c2ccccc2)o1)N1CCN(c2ccc(Cl)cc2)CC1,> 30,> 30,> 30,
COc1cc(C(=O)c2ncc(-c3ccccc3)o2)cc(OC)c1OC,> 30,> 30,> 30,
COc1cc(-c2cnc(C(=O)Nc3ccc([N+](=O)[O-])cc3)o2)cc(OC)c1OC,> 30,> 30,> 30,
O=C(c1ccc(O)cc1)c1ncc(-c2ccccc2)o1,> 30,> 30,> 30,
COc1cc(-c2cnc(C(=O)c3ccccc3)o2)cc(OC)c1OC,> 30,> 30,> 30,
CN(C)c1ccc(NC(=O)c2ncc(-c3ccccc3)o2)cc1,> 30,> 30,> 30,
COc1cc(-c2cnc(C(=O)Nc3ccccc3)o2)cc(OC)c1OC,> 30,27.3,> 30,
CCN(CC)c1ccc(NC(=O)c2ncc(-c3ccccc3)o2)cc1,> 30,> 30,> 30,
O=C(Nc1ccc(Cl)cc1)c1ncc(-c2ccccc2)o1,> 30,> 30,> 30,
COc1cc(-c2cnc(C(=O)Nc3ccc(F)cc3)o2)cc(OC)c1OC,> 30,> 30,> 30,
COc1ccc(-c2cnc(C(=O)c3ccccc3)o2)cc1,> 30,> 30,> 30,
